Test results from patent publication US8008494B2, “Soluble amide and ester pyrazinoylguanidine sodium channel blockers” (Parion Sciences, Inc., priority 2004, dated 2011).
Structures can show the parent of a compound that is named as a salt. Where two headings read alike, the source gives them in different places.

Legend:
[1] = Solubility of compounds in sodium chloride solution; format: physicochemical; details: saline or isotonic, thermodynamic from solid
Experimental: Compound solubility was measured in water, 0.12 or 0.9% sodium chloride solution at ambient temperature for up to 10 days. Using a UV/Visable Spectrophotometer and applying Beer's Law with the calculated extinction coeffecient of amiloride (18.6 mM, absorbance values at 362 nm taken from D. Mazzo 1986) the free base concentration in solution was calculated at specified time points. All samples were stored for the duration of the experiment in a single/closure system consisting of glass vials with a stopper-top closure. The vials were maintained at ambient temperature, in the dark, and in the upright position. Compound stability was measured using reverse phase high performance liquid chromatography on the final filtered pulled sample (day 10).
Table 2 gives the solubility in saline of selected amide bis methane sulfonic acid salts and compares them to the mono addition methane sulfonic acid salt of PSA 9714.

[2] = target: T1, Epithelial Sodium Channel (ENaC) (Canis lupus familiaris, UniProt A0A8I3MKE6+A0A8I3Q679+Q95165); assay: Sodium channel (ENaC) blocking activity, short circuit current in airway epithelial monolayers in Ussing chambers; format: cell-based; details: canine bronchial epithelium; for Fold Amiloride (PSA4022 = 100): relative potency, PSA4022 = 100, using IC50 from PSA4022 in same run
T1 construct: endogenous in cells; host or cells: primary canine bronchial epithelial cells from freshly excised airways, cultured at air-liquid interface and mounted in Ussing chambers
T1 sequence (A0A8I3Q679 1-649): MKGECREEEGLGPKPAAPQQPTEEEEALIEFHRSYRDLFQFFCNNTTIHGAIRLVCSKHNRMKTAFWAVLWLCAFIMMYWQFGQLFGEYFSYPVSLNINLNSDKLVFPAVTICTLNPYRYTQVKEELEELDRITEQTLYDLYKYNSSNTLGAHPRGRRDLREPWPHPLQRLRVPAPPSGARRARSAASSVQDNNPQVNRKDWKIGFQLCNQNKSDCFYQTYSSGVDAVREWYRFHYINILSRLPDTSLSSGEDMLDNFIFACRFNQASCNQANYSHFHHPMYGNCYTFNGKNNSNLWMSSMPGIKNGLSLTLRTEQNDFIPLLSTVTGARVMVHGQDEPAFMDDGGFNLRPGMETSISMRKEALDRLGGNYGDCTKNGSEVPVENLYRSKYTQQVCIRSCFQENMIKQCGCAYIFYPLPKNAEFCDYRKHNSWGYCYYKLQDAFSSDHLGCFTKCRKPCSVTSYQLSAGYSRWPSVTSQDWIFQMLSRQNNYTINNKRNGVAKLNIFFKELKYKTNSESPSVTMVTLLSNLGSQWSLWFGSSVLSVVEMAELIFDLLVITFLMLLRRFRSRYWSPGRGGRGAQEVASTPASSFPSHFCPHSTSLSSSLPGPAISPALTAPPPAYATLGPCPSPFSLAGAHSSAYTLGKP
T1 sequence (Q95165 1-641): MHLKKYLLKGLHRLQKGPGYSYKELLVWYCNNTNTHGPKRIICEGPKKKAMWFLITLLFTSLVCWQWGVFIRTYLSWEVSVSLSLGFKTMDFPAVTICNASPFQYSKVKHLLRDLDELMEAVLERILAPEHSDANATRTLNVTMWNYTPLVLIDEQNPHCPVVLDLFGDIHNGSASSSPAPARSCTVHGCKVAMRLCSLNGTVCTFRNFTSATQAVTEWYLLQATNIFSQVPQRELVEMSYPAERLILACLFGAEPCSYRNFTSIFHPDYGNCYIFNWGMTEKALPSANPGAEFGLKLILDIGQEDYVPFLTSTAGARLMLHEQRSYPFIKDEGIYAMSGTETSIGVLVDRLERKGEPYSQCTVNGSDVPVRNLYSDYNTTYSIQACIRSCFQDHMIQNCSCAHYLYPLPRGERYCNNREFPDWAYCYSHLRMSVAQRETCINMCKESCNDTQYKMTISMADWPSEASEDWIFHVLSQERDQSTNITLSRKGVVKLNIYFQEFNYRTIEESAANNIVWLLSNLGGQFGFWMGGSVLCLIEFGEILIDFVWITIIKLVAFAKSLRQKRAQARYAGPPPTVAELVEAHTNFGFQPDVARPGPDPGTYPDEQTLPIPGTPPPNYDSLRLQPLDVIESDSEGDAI
T1 sequence (A0A8I3MKE6 1-646): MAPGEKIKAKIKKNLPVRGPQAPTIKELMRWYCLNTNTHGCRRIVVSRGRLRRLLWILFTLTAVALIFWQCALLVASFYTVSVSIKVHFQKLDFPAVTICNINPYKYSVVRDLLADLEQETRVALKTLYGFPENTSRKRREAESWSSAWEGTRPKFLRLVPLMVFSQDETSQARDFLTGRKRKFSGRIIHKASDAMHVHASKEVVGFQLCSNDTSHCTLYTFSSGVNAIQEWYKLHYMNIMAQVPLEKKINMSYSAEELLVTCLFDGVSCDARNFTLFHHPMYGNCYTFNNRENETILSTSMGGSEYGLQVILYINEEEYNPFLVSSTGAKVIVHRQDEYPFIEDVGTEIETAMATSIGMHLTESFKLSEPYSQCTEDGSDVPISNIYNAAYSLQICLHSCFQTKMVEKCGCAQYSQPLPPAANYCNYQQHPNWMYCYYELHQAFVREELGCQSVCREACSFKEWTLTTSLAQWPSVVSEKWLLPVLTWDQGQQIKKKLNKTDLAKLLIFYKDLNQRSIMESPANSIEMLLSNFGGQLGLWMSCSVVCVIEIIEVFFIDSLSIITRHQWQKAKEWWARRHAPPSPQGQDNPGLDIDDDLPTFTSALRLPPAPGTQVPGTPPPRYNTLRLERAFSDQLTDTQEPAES
Experimental: One assay used to assess mechanism of action and/or potency of the compounds of the present invention involves the determination of lumenal drug inhibition of airway epithelial sodium currents measured under short circuit current (ISC) using airway epithelial monolayers mounted in Ussing chambers. Cells obtained from freshly excised human, dog or sheep airways are seeded onto porous 0.4 micron Snapwell™ Inserts (CoStar), cultured at air-liquid interface (ALI) conditions in hormonally defined media, and assayed for sodium transport activity (ISC in μA/cm^2) while bathed in Krebs Bicarbonate Ringer (KBR) in Ussing chambers. All test drug additions are to the lumenal bath with half-log dose addition protocols (from 1×10^−11 M to 3×10^−5 M), and the cumulative change in ISC (inhibition) recorded. All drugs are prepared in dimethyl sulfoxide as stock solutions at a concentration of 1×10^−2 M and stored at −20° C. Six preparations are typically run in parallel; one preparation per run incorporates a positive control. All data from the voltage clamps are collected via a computer interface and analyzed off-line.
Dose-effect relationships for all compounds are considered and analyzed by the Prism 3.0 program. EC50 values, maximal effective concentrations are calculated and compared to positive controls.
Utilizing the tests set forth above, Table 3 summaries the ENaC blocking ability of some of the amides of this invention when assayed in canine bronchial epithelium.
Utilizing the tests set forth above, Table 4 summaries the ENaC blocking ability of some of the Esters of this invention when assayed in canine bronchial epithelium.

[3] = 0.12% sodium chloride solution, 0.12% NaCl solution, methanesulfonic acid salts, ambient temperature, read-out: S1 = Solubility in 0.12% NaCl Solution
[4] = 0.9% sodium chloride solution (normal saline), 0.9% NaCl solution (normal saline), methanesulfonic acid salts, ambient temperature, read-out: S2 = Solubility in 0.9% NaCl Solution (normal Saline)
[5] = Table 3, read-out: IC50 (nM), Epithelial Sodium Channel Blocking Activity of Selected Amides
[6] = Table 4, read-out: IC50 (nM), Epithelial Sodium Channel Blocking Activity of Selected Esters

## CN(C)CCCNC(=O)COc1ccc(CCCCNC(=N)NC(=O)c2nc(Cl)c(N)nc2N)cc1 (as salt: methanesulfonate) [PSA 24304, 2-(4-{4-[N′-(3,5-diamino-6-chloropyrazine-2-carbonyl)guanidino]-butyl}phenoxy)-N-(3-dimethylaminopropyl)acetamide dimethanesulfonate]
other
  melting point: 187 to 190 °C

## CS(=O)(=O)O.CS(=O)(=O)O.N=C(NCCCCc1ccc(C(=O)N2CCNCC2)cc1)NC(=O)c1nc(Cl)c(N)nc1N [PSA23607, N-(3,5-Diamino-6-chloropyrazine-2-carbonyl)-N′-{4-[4-(piperazine-1-carbonyl)phenyl]butyl}guanidine bis-methanesulfonate]
[1]; 0.12% sodium chloride solution, 0.12% saline solution, read-out: solubility in 0.12% saline solution
  solubility: > 5000 µg/mL

## N=C(NCCCCc1ccc(OCC(N)=O)cc1)NC(=O)c1nc(Cl)c(N)nc1N [PSA 9714, reference compound]
[1]; [3]
  solubility: < 100 µg/mL
[1]; [4]
  solubility: < 100 µg/mL
[2]; Table 3
  Fold Amiloride (PSA4022 = 100): 62

## N=C(NCCCCc1ccc(OCC(=O)N2CCNCC2)cc1)NC(=O)c1nc(Cl)c(N)nc1N [PSA 19913]
[1]; [3]
  solubility: > 5000 µg/mL
other
  melting point: 72 to 74 °C
[2]; [5]
  IC50: 9 ± 1 nM
[2]; Table 3
  Fold Amiloride (PSA4022 = 100): 98

## CN(C)CCNC(=O)COc1ccc(CCCCNC(=N)NC(=O)c2nc(Cl)c(N)nc2N)cc1 [PSA 23185a]
[1]; [3]
  solubility: > 5000 µg/mL
other
  melting point: 97 to 99 °C
[2]; [5]
  IC50: 14 ± 9 nM
[2]; Table 3
  Fold Amiloride (PSA4022 = 100): 59

## N=C(NCCCCc1ccc(OCC(=O)NCCN(CCO)CCO)cc1)NC(=O)c1nc(Cl)c(N)nc1N [PSA 23450]
[1]; [3]
  solubility: > 5000 µg/mL
[1]; [4]
  solubility: > 5000 µg/mL
other
  melting point: 87 to 89 °C
[2]; [5]
  IC50: 18 nM
[2]; Table 3
  Fold Amiloride (PSA4022 = 100): 38

## N=C(NCCCCc1ccc(OCC(=O)NCCN)cc1)NC(=O)c1nc(Cl)c(N)nc1N [PSA 23778]
[1]; [3]
  solubility: > 5000 µg/mL
other
  melting point: 105 to 107 °C (dec.)
[2]; Table 3
  Fold Amiloride (PSA4022 = 100): 146

## CN(C)CCCNC(=O)COc1ccc(CCCCNC(=N)NC(=O)c2nc(Cl)c(N)nc2N)cc1 [PSA 24304, 2-(4-{4-[N′-(3,5-diamino-6-chloropyrazine-2-carbonyl)guanidino]-butyl}phenoxy)-N-(3-dimethylaminopropyl)acetamide dimethanesulfonate]
[1]; [3]
  solubility: > 5000 µg/mL
[2]; [5]
  IC50: 4 ± 2 nM
[2]; Table 3
  Fold Amiloride (PSA4022 = 100): 173

## CN(C)CCCCNC(=O)COc1ccc(CCCCNC(=N)NC(=O)c2nc(Cl)c(N)nc2N)cc1 [PSA 24305]
[1]; [3]
  solubility: > 5000 µg/mL
[1]; [4]
  solubility: > 5000 µg/mL
other
  melting point: 188 to 190 °C
[2]; [5]
  IC50: 6 ± 5 nM
[2]; Table 3
  Fold Amiloride (PSA4022 = 100): 152

## CC(C)(C)OC(=O)NCCOC(=O)COc1ccc(CCCCNC(N)=NC(=O)c2nc(Cl)c(N)nc2N)cc1 [PSA 25309, (4-{4-[N′-(3,5-Diamino-6-chloropyrazine-2-carbonyl)guanidino]butyl}phenoxy)acetic acid 2-tert-butoxycarbonylaminoethyl ester]
other
  melting point: 80 to 82 °C
[2]; [6]
  IC50: 4 nM
[2]; Table 4
  Fold Amiloride (PSA4022 = 100): 119

## N=C(NCCCCc1ccc(OCC(=O)OCCN2CCCCC2)cc1)NC(=O)c1nc(Cl)c(N)nc1N [PSA 25453, (4-{4-[N′-(3,5-diamino-6-chloropyrazine-2-carbonyl)guanidino]butyl}-phenoxy)acetic acid 2-piperidin-1-yl-ethyl ester]
[2]; [6]
  IC50: 19 ± 16 nM
[2]; Table 4
  Fold Amiloride (PSA4022 = 100): 38

## N=C(NCCCCc1ccc(OCC(=O)OCCN)cc1)NC(=O)c1nc(Cl)c(N)nc1N [PSA 25454, (4-{4-[N′-(3,5-diamino-6-chloropyrazine-2-carbonyl)guanidino]butyl}-phenoxy)acetic acid 2-aminoethyl ester dihydrochloride]
[2]; [6]
  IC50: 12 ± 2 nM
[2]; Table 4
  Fold Amiloride (PSA4022 = 100): 44

## N=C(NCCCCc1ccc(OCC(=O)OCC2CCNCC2)cc1)NC(=O)c1nc(Cl)c(N)nc1N [PSA 25720, (4-{4-[N′-(3,5-diamino-6-chloropyrazine-2-carbonyl)guanidino]butyl}-phenoxy)acetic acid piperidin-4-yl-methyl ester dihydrochloride]
[2]; [6]
  IC50: 3 nM
[2]; Table 4
  Fold Amiloride (PSA4022 = 100): 189
